The record followed here is ChEMBL document CHEMBL1151039, “Muscarinic antagonist activity of 3-(5-alkoxy-oxazol-2-yl)-1,2,5,6-tetrahydropyridines” (Bioorg Med Chem Lett, 1994).

In assay [1] the target is Muscarinic acetylcholine receptor. The experiment in a line: Inhibition of [3H]pirenzepine binding to muscarinic receptor in rat cortical homogenates.
A further assay is filed under the species Rattus norvegicus. The experiment in a line: In vitro inhibition of acetylcholine induced phosphatidyl inositol hydrolysis in a rat cerebral cortex slice preparation. Format: functional.
The subject of a further assay is Mus musculus. The experiment in a line: In vivo antagonist activity measured as inhibition of oxotremorine induced tremors in mice at 1 mg/kg of ip administration. Format: functional. Particulars: route intraperitoneal.

Where only a bound is given, the exact number is not on record here.

Usually Ki stands for the equilibrium dissociation constant of an inhibitor or competing ligand from its target. By IC50 is commonly meant the midpoint of a concentration-inhibition curve.

With `CCCOc1oc(C2=CCCN(C)C2)nc1C(C)CC` (stereo not given), in assay [1], the Ki came out at 0.0008 µM.

Compound `CCc1nc(C2=CCCN(C)C2)oc1OC` registered a Ki in assay [1] of 0.03 µM. This Ki lies about 38-fold higher than the previous one.

In assay [1], `COc1oc(C2=CCCN(C)C2)nc1Cc1ccccc1` yielded a Ki of 0.016 µM. This Ki is about 1.9-fold lower than that of the compound before.

`COc1cnc(C2=CCCN(C)C2)o1` showed a Ki in assay [1] greater than 1 µM.

The compound `COc1oc(C2=CCCN(C)C2)nc1C(C)C` displayed an inhibition constant (Ki) in assay [1] of 0.01 µM.

Take `CCOc1oc(C2=CCCN(C)C2)nc1C(C)CC` (stereo not given): the Ki in assay [1] is 0.0008 µM.

Compound `CCCCOc1oc(C2=CCCN(C)C2)nc1C(C)CC` (stereo not given) registered a Ki in assay [1] of 0.0015 µM.

On to `COc1oc(C2=CCCN(C)C2)nc1CC(C)C`, for which the Ki in assay [1] was 0.025 µM.

The compound `CCCCCCOc1oc(C2=CCCN(C)C2)nc1C(C)CC` (stereo not given) gave a Ki in assay [1] of 0.022 µM.

Turning to `CCOc1oc(C2=CCCN(C)C2)nc1C`, the Ki in assay [1] was 0.033 µM.

Compound `CCCCc1nc(C2=CCCN(C)C2)oc1OC` came in with an inhibition constant Ki in assay [1] of 0.011 µM.

`COc1oc(C2=CCCN(C)C2)nc1C` registered a Ki in assay [1] of 0.09 µM.

In turn, `CCC(C)c1nc(C2=CCCN(C)C2)oc1OC` (stereo not given) showed an inhibitory constant (Ki) in assay [1] of 0.002 µM.

In the assay filed under Rattus norvegicus, `CN1[C@@H]2C[C@@H](OC(=O)[C@H](CO)c3ccccc3)C[C@H]1[C@@H]1O[C@@H]12` [SCOPOLAMINE] showed an IC50 of 0.0089 µM. Besides, the AD50 in the assay with Mus musculus turned out to be 0.1 mg/kg.
